{"source": "patent US20040234610A1", "about": "“Medical device and method for inhalation of aerosolized drug with heliox” (priority 2001, published 2004)", "assay": "Nebulized particle size distribution by Anderson Cascade Impactor, RES-Q-Neb (T and Y design) vs HOPE nebulizer", "format": "physicochemical", "experimental": "A study was conducted to compare the performance of two embodiments of the heliox nebulization system described herein (called the RES-Q-Neb™ Nebulizer) with a commercially available nebulizer (HOPE™, B&B Medical Technologies, Inc., Orangevale, Calif., USA) that is driven by air.\nMeasurements were done using an Anderson Cascade Impactor (ACI) operated at an air flow rate of 28.3 L/min. The nebulizers were connected one at a time to the same tee piece and collar. The ACI consisted of eight stages, a backup filter, and an inlet (USP throat).\nGas flows through the nebulizers and impactor were controlled with rotameters, which were set with the DryCal Flow Calubrator (BIOS International Co., Pomton Plains, N.J.).\nHeliox (80% helium, 20% oxygen) at 18 L/min was used to drive the RES-Q-Neb Nebulizer and another 18 L/min of the heliox was introduced into the system at the reservoir bag side port. […] The HOPE nebulizer was driven with compressed air at 10 L/min (as directed in its included label and instructions), and 18 L/min of heliox was introduced into the system at a side port, as shown in FIG. 10.\nA pre-running time was used for each test to stabilize the generation of aerosol. The RES-Q-Neb nebulizer was pre-run for 15 s, and the HOPE nebulizer was pre-run for 30 s. Six tests were run with the RES-Q-Neb nebulizer at the same conditions (3 with the “Y” adaptor and 3 with the “T” adaptor) and five tests were run with the HOPE nebulizer at the same conditions.\nAfter each test, the ACI and empty nebulizers were disassembled and washed with deionized water. The wash water was collected and the amount of drug remaining or collected was determined using spectrophotometric analysis at 224 nm.\nThe particle sizes are expressed as 50% mass median aerodynamic diameters (MMAD).", "key": {"[1]": {"details": "HOPE nebulizer, compressed air 10 L/min nebulizer + heliox 18 L/min side port"}, "[2]": {"details": "HOPE nebulizer, compressed air 10 L/min nebulizer + heliox 18 L/min side port, mean of 5 tests"}, "[3]": {"details": "HOPE nebulizer, compressed air 10 L/min nebulizer + heliox 18 L/min side port, single tests, listed as Albuterol sulfate"}, "[4]": {"details": "RES-Q-Neb T design, heliox 18 L/min nebulizer + 18 L/min side port"}, "[5]": {"details": "RES-Q-Neb T design, heliox 18 L/min nebulizer + 18 L/min side port, mean of 3 tests"}, "[6]": {"details": "RES-Q-Neb T design, heliox 18 L/min nebulizer + 18 L/min side port, single tests, listed as Albuterol sulfate"}, "[7]": {"details": "RES-Q-Neb Y design, heliox 18 L/min nebulizer + 18 L/min side port (18-18 lpm)"}, "[8]": {"details": "RES-Q-Neb Y design, heliox 18 L/min nebulizer + 18 L/min side port, mean of 3 tests"}, "[9]": {"details": "RES-Q-Neb Y design, heliox 18 L/min nebulizer + 18 L/min side port, single tests, listed as Albuterol sulfate"}}, "note": "“And” between values parts separate entries of the source, which are not always exact repeats. Equal values may be shown once.", "data": [{"smiles": "CC(C)(C)NCC(O)c1ccc(O)c(CO)c1", "note": "(stereo not shown) [albuterol]", "values": [{"measurement": "0.7 ≦ Mean Fraction < 5.8 μm", "setting": "[1]", "value": 0.503}, {"measurement": "Mean Fraction < 0.7 μm", "setting": "[1]", "value": 0.052}, {"measurement": "Mean Fraction at Midpoint = 1.52 μm", "setting": "[1]", "value": 0.227}, {"measurement": "Mean Fraction ≧ 5.8 μm", "setting": "[1]", "value": 0.446}, {"measurement": "Mean Fraction, Collar", "setting": "[2]", "value": 0.009}, {"measurement": "Mean Fraction, Filter (cut-size <0.4 micron)", "setting": "[2]", "value": 0.015}, {"measurement": "Mean Fraction, Stage 0 (cut-size 9 micron)", "setting": "[2]", "value": 0.110}, {"measurement": "Mean Fraction, Stage 1 (cut-size 5.8 micron)", "setting": "[2]", "value": 0.151}, {"measurement": "Mean Fraction, Stage 2 (cut-size 4.7 micron)", "setting": "[2]", "value": 0.044}, {"measurement": "Mean Fraction, Stage 3 (cut-size 3.3 micron)", "setting": "[2]", "value": 0.099}, {"measurement": "Mean Fraction, Stage 4 (cut-size 2.1 micron)", "setting": "[2]", "value": 0.119}, {"measurement": "Mean Fraction, Stage 5 (cut-size 1.1 micron)", "setting": "[2]", "value": 0.227}, {"measurement": "Mean Fraction, Stage 6 (cut-size 0.7 micron)", "setting": "[2]", "value": 0.014}, {"measurement": "Mean Fraction, Stage 7 (cut-size 0.4 micron)", "setting": "[2]", "value": 0.037}, {"measurement": "Mean Fraction, Tee Piece", "setting": "[2]", "value": 0.060}, {"measurement": "Mean Fraction, Throat (cut-size >9 micron)", "setting": "[2]", "value": 0.034}, {"measurement": "Mean Fraction, Tube", "setting": "[2]", "value": 0.082}, {"measurement": "Fraction, Stage 1 (cut-size 5.8 micron)", "setting": "[3]", "value": "0.139 and 0.164 and 0.154 and 0.138 and 0.160"}, {"measurement": "Fraction, Stage 2 (cut-size 4.7 micron)", "setting": "[3]", "value": "0.039 and 0.047 and 0.044 and 0.045"}, {"measurement": "Fraction, Stage 3 (cut-size 3.3 micron)", "setting": "[3]", "value": "0.088 and 0.110 and 0.109 and 0.090 and 0.099"}, {"measurement": "Fraction, Tee Piece", "setting": "[3]", "value": "0.066 and 0.056 and 0.058 and 0.052 and 0.069"}, {"measurement": "Fraction, Throat (cut-size >9 micron)", "setting": "[3]", "value": "0.033 and 0.037 and 0.036 and 0.030 and 0.035"}, {"measurement": "Fraction, Tube", "setting": "[3]", "value": "0.105 and 0.077 and 0.073 and 0.081 and 0.074"}, {"measurement": "0.7 ≦ Mean Fraction < 5.8 μm", "setting": "[4]", "value": 0.697}, {"measurement": "Mean Fraction < 0.7 μm", "setting": "[4]", "value": 0.218}, {"measurement": "Mean Fraction at Midpoint = 1.52 μm", "setting": "[4]", "value": 0.519}, {"measurement": "Mean Fraction ≧ 5.8 μm", "setting": "[4]", "value": 0.086}, {"measurement": "mean output rate", "setting": "[4]", "value": 0.54, "unit": "mL/min"}, {"measurement": "Mean Fraction, Adapter", "setting": "[5]", "value": 0.033}, {"measurement": "Mean Fraction, Collar", "setting": "[5]", "value": 0.008}, {"measurement": "Mean Fraction, Filter (cut-size <0.4 micron)", "setting": "[5]", "value": 0.044}, {"measurement": "Mean Fraction, Stage 0 (cut-size 9 micron)", "setting": "[5]", "value": 0.010}, {"measurement": "Mean Fraction, Stage 1 (cut-size 5.8 micron)", "setting": "[5]", "value": 0.015}, {"measurement": "Mean Fraction, Stage 2 (cut-size 4.7 micron)", "setting": "[5]", "value": 0.005}, {"measurement": "Mean Fraction, Stage 3 (cut-size 3.3 micron)", "setting": "[5]", "value": 0.009}, {"measurement": "Mean Fraction, Stage 4 (cut-size 2.1 micron)", "setting": "[5]", "value": 0.061}, {"measurement": "Mean Fraction, Stage 5 (cut-size 1.1 micron)", "setting": "[5]", "value": 0.519}, {"measurement": "Mean Fraction, Stage 6 (cut-size 0.7 micron)", "setting": "[5]", "value": 0.103}, {"measurement": "Mean Fraction, Stage 7 (cut-size 0.4 micron)", "setting": "[5]", "value": 0.174}, {"measurement": "Mean Fraction, T-Piece", "setting": "[5]", "value": 0.017}, {"measurement": "Mean Fraction, Throat (cut-size >9 micron)", "setting": "[5]", "value": 0.003}, {"measurement": "Fraction, Filter (cut-size <0.4 micron)", "setting": "[6]", "value": "0.037 and 0.049 and 0.045"}, {"measurement": "Fraction, Stage 7 (cut-size 0.4 micron)", "setting": "[6]", "value": "0.148 and 0.166 and 0.207"}, {"measurement": "mean output rate", "setting": "RES-Q-Neb Y design, heliox 18 L/min nebulizer + 18 L/min side port", "value": 0.59, "unit": "mL/min"}, {"measurement": "0.7 ≦ Mean Fraction < 5.8 μm", "setting": "[7]", "value": 0.657}, {"measurement": "Mean Fraction < 0.7 μm", "setting": "[7]", "value": 0.239}, {"measurement": "Mean Fraction at Midpoint = 1.52 μm", "setting": "[7]", "value": 0.422}, {"measurement": "Mean Fraction ≧ 5.8 μm", "setting": "[7]", "value": 0.105}, {"measurement": "Mean Fraction, Adapter", "setting": "[8]", "value": 0.040}, {"measurement": "Mean Fraction, Collar", "setting": "[8]", "value": 0.009}, {"measurement": "Mean Fraction, Filter (cut-size <0.4 micron)", "setting": "[8]", "value": 0.053}, {"measurement": "Mean Fraction, Stage 0 (cut-size 9 micron)", "setting": "[8]", "value": 0.012}, {"measurement": "Mean Fraction, Stage 1 (cut-size 5.8 micron)", "setting": "[8]", "value": 0.019}, {"measurement": "Mean Fraction, Stage 2 (cut-size 4.7 micron)", "setting": "[8]", "value": 0.007}, {"measurement": "Mean Fraction, Stage 3 (cut-size 3.3 micron)", "setting": "[8]", "value": 0.010}, {"measurement": "Mean Fraction, Stage 4 (cut-size 2.1 micron)", "setting": "[8]", "value": 0.072}, {"measurement": "Mean Fraction, Stage 5 (cut-size 1.1 micron)", "setting": "[8]", "value": 0.422}, {"measurement": "Mean Fraction, Stage 6 (cut-size 0.7 micron)", "setting": "[8]", "value": 0.146}, {"measurement": "Mean Fraction, Stage 7 (cut-size 0.4 micron)", "setting": "[8]", "value": 0.186}, {"measurement": "Mean Fraction, Throat (cut-size >9 micron)", "setting": "[8]", "value": 0.004}, {"measurement": "Mean Fraction, Y-Piece", "setting": "[8]", "value": 0.021}, {"measurement": "Fraction, Filter (cut-size <0.4 micron)", "setting": "[9]", "value": "0.056 and 0.060 and 0.043"}, {"measurement": "Fraction, Stage 1 (cut-size 5.8 micron)", "setting": "[9]", "value": "0.014 and 0.023 and 0.020"}, {"measurement": "Fraction, Stage 6 (cut-size 0.7 micron)", "setting": "[9]", "value": "0.148 and 0.144"}, {"measurement": "Fraction, Stage 7 (cut-size 0.4 micron)", "setting": "[9]", "value": "0.169 and 0.180 and 0.208"}, {"measurement": "Fraction, Y-Piece", "setting": "[9]", "value": "0.026 and 0.022 and 0.015"}, {"measurement": "less particles >5.8 μm, present device/method vs HOPE nebulizer", "setting": "less than HOPE", "value": "approximately 34%"}, {"measurement": "greater fraction of particles ≥0.7 and <5.8 μm (breathable range), present device/method vs HOPE nebulizer", "setting": "more than HOPE", "value": "approximately 20%"}, {"measurement": "more particles <0.7 μm, present device/method vs HOPE nebulizer", "setting": "more than HOPE", "value": "about 15%"}, {"measurement": "more particles with a midpoint diameter of 1.52 μm, present device/method vs HOPE nebulizer", "setting": "more than HOPE", "value": "approximately 22%"}]}]}
